Common to all, as to assay: inhibition of tumour cell growth, NCI panel, 48 h
Test [1] has as its system SF-268 CNS.
Test [2] deals with ACHN renal.
For test [3], the system named is UACC-62 melanoma.
Test [4] has as its system HCT-116 colon.
Test [5] has as its system MDA-MB-231 breast.
For test [6], the system named is HT29 colon.
Test [7] has as its system OVCAR-8 ovarian.
Test [8] deals with PC-3 prostate.
The subject of test [9] is LOX IMVI melanoma.
The test system of test [10] is NCI-H522 lung.

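Assay format: 96-well plates, 48-hour exposure. GI50: concentration for 50% inhibition of growth. The concentration for full growth arrest is given as TGI.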

Here are results for 24 compounds from PubChem BioAssay (NCI).

For the compound `C1=CC2=CC=CC3c4nc5ccc6ccccc6c5nc4C(=C1)C23` (configuration not stated), the TGI in [1], in [2], in test [3], in [4], in test [5] and in test [6] was > 100 µM each time. Moreover, the TGI in test [7], in test [8] and in test [9] was > 100 µM in each case.
In the case of `C=C[C@@H]1C(CO)=CCC2[C@H]1CCC1C(C)(C)C(=O)CC[C@]21C` (some centres not stated), the TGI in test [1], in [2], in test [3], in test [4], in test [6] and in test [10] was > 100 µM in each case. Besides, the TGI in test [8] and in [9] was > 100 µM in each case.
Turning to `C=CCn1c(=O)ccn(COCCO)c1=O`, the TGI in test [1], in test [2], in test [5], in test [6], in test [7] and in test [10] was > 100 µM each time. In addition, the TGI in [8] and in test [9] was > 100 µM each time.
On to `COc1ccc2cc(-c3ccc(-c4ccc(C(=N)N)s4)s3)ccc2c1`, for which the GI50 in test [1] is 2.1 µM; in test [2] it was 3.06 µM; in test [4], 2.08 µM; in test [5], 2.46 µM; in test [6] it was 1.72 µM; in [10], 1.92 µM. The GI50 was 2.13 µM in test [8] and 1.95 µM in test [9]. Also, the TGI stood at 4.97 µM in test [1]; 8.76 µM in [2]; 4.11 µM in test [4]; 5.42 µM in [5]; 3.27 µM in test [6]; 4.57 µM in test [10]. Also, the TGI came out at 4.33 µM in test [8] and 3.82 µM in [9].
As to `CS(=O)(=O)OCCn1c(=O)n(CCOS(C)(=O)=O)c(=O)n(CCOS(C)(=O)=O)c1=O`, the TGI in test [1], in test [2], in test [3], in test [4], in [5] and in [6] was > 100 µM in each case. Also, the TGI in test [7] and in test [9] was > 100 µM each time.
`Cc1ccccc1C(O)(c1nccn1C)c1nccn1C`: the TGI in [1], in test [2], in test [3], in [4], in test [6] and in test [7] was > 100 µM throughout. Moreover, the TGI in test [10] and in [8] was > 100 µM throughout.
Consider `O=C(/C=C/c1ccsc1)c1ccsc1`, for which the TGI in test [1] is > 100 µM; in test [2], 42.6 µM; in test [3], 89.9 µM; in test [4] it was 30.3 µM; in test [5] it was 42.4 µM; in test [6], 74.8 µM. For the same compound, the TGI came out at 85.6 µM in test [7], 35.6 µM in test [8] and 35.2 µM in test [9].
As for `O=S(=O)(O)c1cc2ccc1/C=C\c1ccc(cc1S(=O)(=O)O)N=Nc1ccc(c(S(=O)(=O)O)c1)/C=C\c1ccc(cc1S(=O)(=O)O)N=N2`, the TGI in [1], in test [3], in [4], in test [6], in [7] and in [10] was > 100 µM each time. In test [9], the TGI is > 100 µM.
With `O=c1c2ccccc2nc2[nH][nH]c(=S)n12`, the TGI in test [1], in test [2], in test [3], in test [4], in [5] and in test [6] was > 100 µM each time. Besides, the TGI in test [7], in test [8] and in [9] was > 100 µM in each case.
Take `BrC/C=C/C[P+](c1ccccc1)(c1ccccc1)c1ccccc1`: the TGI in test [1] is > 100 µM; in [2] it was > 100 µM; in [3], 52.3 µM; in test [4], > 100 µM; in test [7], > 100 µM; in test [10] it was 51.3 µM. For the same compound, in [9], the TGI is 33.5 µM.
`Cc1c2c(n(CCc3ccc(Cl)cc3)c1C)NN=C(C#N)S2(=O)=O`: the TGI in test [1], in [2], in test [3], in test [4], in [5] and in test [6] was > 100 µM each time. Also, the TGI in test [8] and in test [9] was > 100 µM in each case.
Consider `N#C/C(=C\c1cc(Br)c(O)c(Br)c1)c1cccnc1`, for which the TGI in test [1], in test [2], in test [3], in [4], in test [6] and in test [7] was > 100 µM each time. Besides, the TGI in test [10] was > 100 µM; in test [8], 69.7 µM.
With `O=C(NCCCN(CCCCN(CCCNC(=O)C(F)(F)F)Cc1ccccc1)Cc1ccccc1)C(F)(F)F`, the TGI in [1] was 25 µM; in test [2], 30.1 µM; in test [3] it was 30.6 µM; in test [4] it was 23.6 µM; in [5], 34.1 µM; in test [6], 19.2 µM. The TGI is 26.9 µM in test [7], 22.3 µM in [10] and 21.3 µM in [9].
With `Cc1cc2[nH]c3[nH]c(=O)[nH]c(=O)c3c2cc1C`, the TGI in test [1], in [2], in test [3], in test [4], in [5] and in test [6] was > 100 µM in each case. The TGI in test [7], in test [10] and in test [9] was > 100 µM in each case.
For the compound `CC(=O)O[C@]12CCCCCC1C1(O)C(O)CCC[C@H]12` (some centres not stated), the TGI in [1], in test [2], in [3], in test [4], in [6] and in test [7] was > 100 µM throughout. In addition, in test [9], the TGI is > 100 µM.
For the compound `O=C(N=Nc1cc(Cl)ccc1Cl)NNc1cc(Cl)ccc1Cl`, the TGI was 27 µM in test [3]; 33.6 µM in [4]; 40.1 µM in [5]; 37 µM in [6]; > 100 µM in test [7]; 29.9 µM in [10]. For the same compound, in test [8], the TGI is 22.8 µM.
Regarding `CCCNC(=O)CCC(C)[C@H]1CCC2C3C(C[C@H](OC(C)=O)[C@@]21C)[C@@]1(C)CCC2(C[C@H]1C[C@H]3OC(C)=O)OOC1(CCC(C)CC1)OO2` (some centres not stated), the TGI is 50.8 µM in test [1]; 4.08 µM in test [2]; > 100 µM in test [3]; > 100 µM in test [4]; 98.4 µM in [5]; > 100 µM in test [6]. Also, the figures for the TGI in [7], in [10] and in test [8] were 48.3 µM, 33.3 µM and > 100 µM, respectively.
Turning to `CCOC(=O)/C=C(\C)c1ccc(C)cc1C`, the TGI in [1] is > 100 µM; in test [2] it was > 100 µM; in test [4], > 100 µM; in test [6], > 100 µM; in [7] it was > 100 µM; in [9], 31.3 µM.
For `O=c1ccc2cc3ccc4cccc5ccc(c2o1)c3c45`, the TGI is > 100 µM in test [1]; 34 µM in test [2]; > 100 µM in test [3]; > 100 µM in [6]; > 100 µM in [7]; > 100 µM in test [10]. Moreover, the TGI in test [9] was 55.6 µM.
For the compound `Cc1cc(=O)c2c([nH]1)NS(=O)(=O)NC2=O`, the TGI in test [1], in test [3], in test [4], in test [6], in test [7] and in test [10] was > 100 µM in each case.
For `COCOc1ccc(Cn2c(=O)n(C)c(=O)c3c2ncn3C)cc1[N+](=O)[O-]`, the TGI in test [1], in [2], in [3], in [4], in [6] and in test [7] was > 100 µM each time. Besides, the TGI in [10] and in [9] was > 100 µM throughout.
In the case of `COc1ccc(C2(CC(C)O)SCCCS2)cc1` (configuration not stated), the TGI in test [1], in [2], in [3], in test [4], in [5] and in [6] was > 100 µM in each case. For the same compound, the TGI in test [7], in test [10] and in [8] was > 100 µM each time.
Regarding `O=[N+]([O-])/C(C(Cl)=C(Cl)Cl)=C(\Nc1cccc2cccnc12)SCc1ccccc1`, the TGI in [1] is 42.3 µM; in test [2] it was 64.4 µM; in test [3], 63.7 µM; in [4], 36.1 µM; in test [5] it was > 100 µM; in [6], 48.5 µM. The compound further returned a TGI in [8] of 36.5 µM.
As to `C=CCNC(=S)/N=C/c1c(O)c2ccccc2oc1=O`, the TGI in [1], in [2], in test [3], in [4], in test [6] and in test [7] was > 100 µM throughout. The TGI in test [10] and in test [9] was > 100 µM throughout.
